Laboratory results: patent US10251874B2, “Crystalline forms of a JAK inhibitor compound” (THERAVANCE BIOPHARMA R&D IP, LLC, priority 2017, dated 2019)

Assays:
[1] = tested on: IFNγ-induced pSTAT1 in CD14+ monocytes; experiment: Assay 7: Inhibition of IFNγ-induced pSTAT1 in CD14+ monocytes; assay type: cell-based; details: Homo sapiens, Monocyte, flow cytometry, read-out: pIC50, inhibition of IFNγ-induced pSTAT1 (converted)
Experimental: The potency of the test compound for inhibition of interferon gamma (IFNγ) stimulated STAT1 phosphorylation was measured in CD14-positive (CD14+) monocytes derived from human whole blood (Stanford Blood Center) using flow cytometry. Because IFNγ signals through JAK, this assay provides a measure of JAK cellular potency.
Monocytes were identified using a fluorescein isothiocyanate (FITC) conjugated anti-CD14 antibody (Clone RM052, Beckman Coulter), and an Alexa Fluor 647 conjugated anti-pSTAT1 antibody (pY701, Clone 4a, BD Biosciences) was used to detect STAT1 phosphorylation.
Human peripheral blood mononuclear cells (PBMC) were isolated from human whole blood of healthy donors using a ficoll gradient. […] Cells were washed twice with FACS buffer, and then resuspended in 1:10 anti-pSTAT1 Alexa Fluor 647:FACS buffer (100 μL) for 30 min at RT in the dark, washed twice in FACS buffer, and analyzed using a LSRII flow cytometer (BD Biosciences).
To determine the inhibitory potency of the test compound, the median fluorescent intensity (MFI) of pSTAT1 was measured in CD14+ monocytes. IC50 values were determined from analysis of the inhibition curves of MFI vs compound concentration. Data are expressed as pIC50 (negative decadic logarithm IC50) values.

[2] = tested on: IL-6 induced pSTAT3 in retina/choroid; experiment: Assay 13: Pharmacodynamic assay: inhibition of IL6-induced pSTAT3 in rats; assay type: in vivo, Lewis rats; details: rat, IVT suspension of crystalline compound 1 of Example 2, 15 μg dose, 3 day pre-treatment
Experimental: The ability of a single intravitreal administration of test compound to inhibit IL-6 induced pSTAT3 was measured in rat retina/choroid homogenates.
Suspension formulations were prepared by combining crystalline compound 1 of Example 2 with 0.5% hydroxypropyl methylcellulose (HPMC E5 LV), 0.02% Tween 80, and 0.9% sodium chloride in purified water to attain target concentrations of 3 mg/mL and 10 mg/mL.
Female Lewis rats were intravitreally (IVT) dosed (5 μL per eye) with the suspension formulations or with the drug vehicle. Three days later, IL-6 (Peprotech; 0.1 mg/mL; 5 μL per eye) or vehicle was intravitreally administered to induce pSTAT3.
Ocular tissues were dissected one hour after the second IVT injection with IL-6. The retina/choroid tissues were homogenized and pSTAT3 levels were measured using an ELISA (Cell Signaling Technology). The percent inhibition of IL-6-induced pSTAT3 was calculated in comparison to the vehicle/vehicle and vehicle/IL-6 groups. Inhibition of greater than 100% reflects a reduction of pSTAT3 levels to below those observed in the vehicle/vehicle group.

IFNγ-induced IP-10 = experiment: Assay 14: Pharmacodynamic assay: inhibition of IFNγ-induced IP-10 in rabbits; assay type: in vivo, New Zealand White rabbits; details: rabbit
Experimental: The ability of a single intravitreal administration of test compound to inhibit interferon-gamma (IFNγ) induced IP-10 protein levels was measured in rabbit vitreous and retina/choroid tissues.
Solution formulations at concentrations of 1 mg/mL and 4 mg/mL of compound 1 of Example 2 were prepared as in Assay 12. A suspension formulation was prepared by combining crystalline compound 1 of Example 2 with 0.5% hydroxypropyl methylcellulose (HPMC E5), 0.02% Tween 80, and 9 mg/mL sodium chloride in purified water to attain a target concentration of 20 mg/mL.
Male, New Zealand White rabbits (Liveon Biolabs, India) were used for the studies. Animals were acclimated after arrival at the research facilities (Jubilant Biosys Ltd., India). Each rabbit was given a total of two intravitreal (IVT) injections with a total dose volume of 50 μL per eye. The first IVT injection (45 μL per eye) delivered test compound or vehicle at a prescribed time point (i.e. 24 hours for the solution formulations or 1 week for the suspension formulation). The second IVT injection (5 μL per eye) delivered IFNγ (1 μg/eye; Stock solution 1 mg/mL; Kingfisher Biotech) or vehicle for the induction of IP-10. In brief, on the day of the injections, rabbits were anesthetized with an intramuscular injection of ketamine (35 mg/kg) and xylazine (5 mg/kg). Once deeply anesthetized, each eye was rinsed with sterile saline and IVT injections were performed using a 0.5 mL insulin syringe (50 units=0.5 mL) with a 31-gauge needle at the supra-nasal side of the both eyes by marking the position with a Braunstein fixed caliper (2 ¾″) 3.5 mm from the rectus muscle and 4 mm from the limbus.
Tissues were collected 24 hours after the second IVT injection with IFNγ. Vitreous humor (VH) and retina/choroid tissues (R/C) were collected and homogenized, and IP-10 protein levels were measured using a rabbit CXCL10 (IP-10) ELISA kit (Kingfisher Biotech). The percent inhibition of IFNγ-induced IP-10 was calculated in comparison to the vehicle/vehicle and vehicle/IFNγ groups.

[3] = IVT crystalline suspension 20 mg/mL (Example 2), 1 week pre-treatment
[4] = IVT solution, 45 μg, 24 hour pre-treatment
[5] = IVT solution, 180 μg, 24 hour pre-treatment

## CCc1cc(O)c(F)cc1-c1ccc2c(-c3nc4c([nH]3)CCN(C3CCN(C)CC3)C4)n[nH]c2c1 [Compound 1, 5-ethyl-2-fluoro-4-(3-(5-(1-methylpiperidin-4-yl)-4,5,6,7-tetrahydro-1H-imidazo[4,5-c]pyridin-2-yl)-1H-indazol-6-yl)phenol]
[1]
  IC50: ~31.6 nM
[2]
  inhibition of IL-6-induced pSTAT3 in retina/choroid tissues: 33%
IFNγ-induced IP-10; [3]
  inhibition of IFNγ-induced IP-10 in retina/choroid tissues: 100%
  inhibition of IFNγ-induced IP-10 in vitreous humor: 100%
IFNγ-induced IP-10; [4]
  inhibition of IFNγ-induced IP-10 in retina/choroid tissue: 86%
  inhibition of IFNγ-induced IP-10 in vitreous humor: 70%
IFNγ-induced IP-10; [5]
  inhibition of IFNγ-induced IP-10 in retina/choroid tissue: 100%
  inhibition of IFNγ-induced IP-10 in vitreous humor: 91%
